From patent publication US7144919B1, “Polyoxyethylene-polyoxypropylene vitamin E and process for preparation thereof” (priority 2000, dated 2006)

Assay: Anti-oxidation activity: peroxide value of linoleic acid
Settings: sample 0.5% in linoleic acid, incubator 40° C.
Description: The novel POE-POP vitamin E of the present invention was examined for anti-oxidation activity, using linoleic acid. Readily being oxidized, linoleic acid can be used in determining the ability of an antioxidant of interest to inhibit the oxidation of linoleic acid. Used in this test was reagent-grade linoleic acid that comprised linoleic acid 85% and linolenic acid 15%.
POE-POP vitamin E prepared in Example 1, 2 or 3 was added in an amount of 0.5% to linoleic acid while vitamin E, vitamin E acetate, POE (12EO) vitamin E, POE (24 EO)-cholesterol, POE (20 EO) sorbitan monostearate, and POE (12 EO) nonylphenylether were also used as references. These samples were stored in an incubator maintained at 40° C. After two and ten days of incubation, a peroxide value was determined for each sample. In detail, in 1.0 g of each sample was placed in a 250 ml Erlenmeyer flask and dissolved with 10 ml of chloroform. To the solution, 15 ml of glacial acetic acid and 1 ml of saturated potassium iodide solution were added, and a stopper was put in the flask. After being vigorously shaken, the flask was allowed to stand in a dark place for 5 min. Thereafter, the flask was added with 75 ml of distilled water and vigorously shaken. Free iodine was titrated with a 0.01 N sodium thiosulfate solution, using a starch solution as an indicator. The point at which the solution became colorless was regarded as the end point. The peroxide value was calculated as follows:
[formula] wherein, S: Amount of 0.01 N sodium thiosulfate solution consumed by sample (ml) B: Amount of 0.01 N sodium thiosulfate solution consumed in blank test tube (ml) F: Factor of 0.01 N sodium thiosulfate solution

Molecule	Peroxide Values (Day 2)	Peroxide Values (Day 10)
CC(=O)Oc1c(C)c(C)c2c(c1C)CCC(C)(CCC[C@H](C)CCC[C@H](C)CCCC(C)C)O2 (stereo partly shown) [Vitamin E acetate]	26.2	122.3
Vitamin E	21.6	58.9
